The text below walks through data of patent publication US20240360148A1 (SUVALENT THERAPEUTICS, INC., priority 2021, published 2024).

Broadly, the IC50 is the concentration at which inhibition is half-maximal.

Data set [1] is described as follows: Plasma protein binding, equilibrium dialysis, human plasma. The settings on record: 5 hours at 37° C., read-out: PPB % bound Human (converted). Format: in vitro ADME. The protocol:
(§1) The compounds of interest were evaluated for various PK parameters. Specifically CACO permeability/efflux and plasma protein binding (PPP) were determined. Stock solutions were prepared at 10 mM in DMSO for test and reference compounds. Aliquots of the stock solution were diluted to 500× of final concentration (0.5 mM) with DMSO, then further diluted upon the addition of bank PE3-buffer to 20× of final concentration (20 μM). Then test and reference compounds were prepared in plasma at 1 μM. For 0 hour incubation: 25 μL of the plasma spiked with test and reference compounds was transferred into a 96-well sample preparation plate, and then 25 μL blank PB-buffer was added. The samples were quenched by 200 μL of IS solution to prepare [Initial]0h samples. For 5 hours incubation: 100 μL of the plasma spiking with test and reference compounds was loaded on donor side, and 100 μL of blank PB-buffer were loaded on receiver side of the equilibrium dialysis device. Samples were incubated in an air-bath shaker (60 rpm) for 5 hours at 37° C. After 5 hours incubation, 25 μL of samples (from both the donor sides and receiver sides of the dialysis apparatus) was aspirated and added into new sample preparation plates, separately. 25 μL of blank PB-buffer was added to donor side samples and 25 μL of blank plasma was added to receiver side samples to balance the matrix. The samples were quenched with 200 μL of IS solution. The assay plate was shaken at the vibrator (Hangzhou Allsheng, MX100-4A) for 10 min (600 rpm) and then centrifuged at 5,594×g for 15 min (Thermo Multifuge×3R). An aliquot of the 50 μL supernatant was taken from each well and diluted by 50 μL distilled water, then analyzed by UPLC-MS/MS.
Background: In equilibrium dialysis free small molecules cross a membrane that holds back macromolecules.

The nature of data set [2]: Plasma protein binding, equilibrium dialysis, mouse plasma. Format: in vitro ADME. The note with it: 5 hours at 37° C., read-out: PPB % bound Mouse (converted). The protocol: as §1
In data set [3] the test system is sumoylation levels (SUMO 2/3 conjugates) in HCT-116 cells. Kind of data set: HCT-116 4 Hour Cell Assay (Western, SUMO 2/3 conjugates). It counts as cell-based. The settings on record: Homo sapiens, HCT-116, 4 h, 4 h treatment, Anti-Sumo 2-3 immunoblot, read-out: HCT-116 Western 4 h IC50 (μM) Ave. In short, it runs like this:
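IC50 derived from fluorescent immunoblot quantification of SUMO 2/3 conjugate bands, normalized to total protein, after non-reducing SDS-PAGE. Lysis used RIPA plus NEM; exposure was 4 h across 11 concentrations, three-fold serial dilution starting at 25 μM.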

The target of data set [4] is SAE1 (Homo sapiens (Human), UniProt Q9UBT2). Kind of data set: SAE High Throughput Biochemical Assay (HTRF), 15 min preincubation. The settings on record: SAE1 12.5 nM, ATP 100 μM. In short, it runs like this:
(§2)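 HTRF detection of SUMO transfer from SUMO-GST to UBC9-His (40 nM each) by SAE1 at 12.5 nM used 100 μM ATP in pH 7.5 HEPES buffer with 10 mM MgCl2 and 0.1% BSA. Enzyme and compound were preincubated 15 min at RT and the reaction ran 45 min, with readings after 2 h and overnight.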
On the technique in general: In TR-FRET formats the signal depends on donor and acceptor labels being close together.

Data set [5] deals with SAE1 (Homo sapiens (Human), UniProt Q9UBE0+Q9UBT2). Described as above. The settings on record: read-out: 15 min preincubation HTRF IC50 (μM) Ave, SAE1 12.5 nM, ATP 100 μM. In short, it runs like this: as §2
Sequence of SAE1 (Homo sapiens (Human), UniProt Q9UBE0+Q9UBT2) (Q9UBE0 whole entry): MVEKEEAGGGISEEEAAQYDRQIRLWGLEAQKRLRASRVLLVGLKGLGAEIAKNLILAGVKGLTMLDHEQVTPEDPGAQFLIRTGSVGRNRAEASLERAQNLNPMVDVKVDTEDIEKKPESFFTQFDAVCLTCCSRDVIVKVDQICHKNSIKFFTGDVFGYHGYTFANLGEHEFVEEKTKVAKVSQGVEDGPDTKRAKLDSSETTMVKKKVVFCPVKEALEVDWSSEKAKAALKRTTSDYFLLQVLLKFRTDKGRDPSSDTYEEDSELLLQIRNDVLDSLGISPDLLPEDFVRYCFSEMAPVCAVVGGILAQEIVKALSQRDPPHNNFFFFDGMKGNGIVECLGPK
Sequence of SAE1 (Homo sapiens (Human), UniProt Q9UBE0+Q9UBT2) (Q9UBT2 whole entry): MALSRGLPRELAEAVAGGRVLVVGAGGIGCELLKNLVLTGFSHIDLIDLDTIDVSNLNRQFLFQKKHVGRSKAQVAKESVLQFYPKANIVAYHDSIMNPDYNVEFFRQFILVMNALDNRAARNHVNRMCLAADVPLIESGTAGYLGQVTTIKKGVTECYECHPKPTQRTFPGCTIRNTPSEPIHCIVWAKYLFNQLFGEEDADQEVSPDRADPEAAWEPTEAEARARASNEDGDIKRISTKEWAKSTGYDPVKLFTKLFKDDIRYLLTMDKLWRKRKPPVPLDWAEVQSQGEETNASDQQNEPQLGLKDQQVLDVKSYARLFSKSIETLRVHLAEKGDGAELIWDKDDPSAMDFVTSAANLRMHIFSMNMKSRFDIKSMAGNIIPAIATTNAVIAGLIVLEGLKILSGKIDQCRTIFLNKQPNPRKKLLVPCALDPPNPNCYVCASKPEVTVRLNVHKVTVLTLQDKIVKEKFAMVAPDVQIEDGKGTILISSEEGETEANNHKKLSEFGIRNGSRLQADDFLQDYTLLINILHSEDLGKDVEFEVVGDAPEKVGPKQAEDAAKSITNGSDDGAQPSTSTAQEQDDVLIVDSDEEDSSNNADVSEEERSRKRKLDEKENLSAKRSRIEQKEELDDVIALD

Sequence of SAE1 (Homo sapiens (Human), UniProt Q9UBT2) (Q9UBE0 whole entry): as the sequence (Q9UBE0 whole entry) above
Sequence of SAE1 (Homo sapiens (Human), UniProt Q9UBT2) (Q9UBT2 whole entry): as the sequence (Q9UBT2 whole entry) above

On to `C=CC(=O)N1Cc2sc(Cl)cc2[C@H](c2ccccc2-c2cn(CC)nc2C(F)(F)F)C1` [Comp. Ex. 1, reference compound], for which the figures for the fraction unbound at 5 h, 1 μM in data set [1] and in data set [2] were 0.002 and less than 0.001, respectively.

Consider `CCn1cc(-c2ccccc2[C@@H]2CN(C(=O)/C=C/CN(C)C)Cc3sc(Cl)cc32)c(C(F)(F)F)n1` [Comp. Ex. 2, reference compound], for which the fraction unbound at 5 h, 1 μM was 0.008 in data set [1] and less than 0.003 in data set [2].

Take `CNC/C=C/C(=O)N1Cc2sc(C#N)c(C)c2[C@H](c2cccc(F)c2-c2cn(C)nc2C(F)(F)F)C1` [Example 216, (S,E)-4-(3-fluoro-2-(1-methyl-3-(trifluoromethyl)-1 H-pyrazol-4-yl)phenyl)-3-methyl-6-(4-(methylamino)but-2-enoyl)-4,5,6,7-tetrahydrothieno[2,3-c]pyridine-2-carbonitrile]: the 50% inhibitory concentration (IC50) is 0.1 µM in data set [3] and 180 nM on SAE1 [4].

Turning to `COc1cncnc1-n1cc(-c2ccccc2[C@@H]2CN(C(=O)/C=C/CN(C)C)Cc3sc(C#N)cc32)c(C(F)(F)F)n1` [Example 178, (S,E)-6-(4-(dimethylamino)but-2-enoyl)-4-(2-(1-(5-methoxypyrimidin-4-yl)-3-(trifluoromethyl)-1H pyrazol-4-yl)phenyl)-4,5,6,7-tetrahydrothieno[2,3-c]pyridine-2-carbonitrile], the IC50 in data set [3] is 0.69 µM; against SAE1 [4] it was 16700 nM.

On to `[2H]C([2H])([2H])N(C/C=C/C(=O)N1Cc2sc(C#N)cc2[C@H](c2ccccc2-c2cn(CC)nc2C(F)(F)F)C1)C([2H])([2H])[2H]` [Example 245, (S,E)-6-(4-(bis(methyl-d3)amino)but-2-enoyl)-4-(2-(1-ethyl-3-(trifluoromethyl)-1 H-pyrazol-4-yl)phenyl)-4,5,6,7-tetrahydrothieno[2,3-c]pyridine-2-carbonitrile], for which the values for the IC50 (in data set [3]; against SAE1 [4]) were 0.207 µM and 4150 nM, respectively.

With `CCn1cc(-c2ccccc2[C@@H]2CN(C(=O)/C=C/COC)Cc3sc(C#N)cc32)c(C(F)(F)F)n1` [Example 7, (S, E)-4-(2-(1-Ethyl-3-(trifluoromethyl)-1 H-pyrazol-4-yl)phenyl)-6-(4-methoxybut-2-enoyl)-4,5,6,7-tetrahydrothieno[2,3-c]pyridine-2-carbonitrile], the half-maximal inhibitory concentration (IC50) is 1.95 µM in data set [3] and 9310 nM at SAE1 [4].

Turning to `CCn1cc(-c2ccccc2[C@@H]2CN(C(=O)/C=C/[C@H]3CCCN3C)Cc3sc(C#N)cc32)c(C(F)(F)F)n1` [Example 90, (S)-4-(2-(1-Ethyl-3-(trifluoromethyl)-1 H-pyrazol-4-yl)phenyl)-6-((E)-3-((R)-1-methylpyrrolidin-2-yl)acryloyl)-4,5,6,7-tetrahydrothieno[2,3-c]pyridine-2-carbonitrile], the half-maximal inhibitory concentration (IC50) in data set [3] was 3.05 µM; on SAE1 [4], 5680 nM.

In the case of `CCn1cc(-c2ccccc2[C@@H]2CN(C(=O)C#CC(C)(C)N)Cc3sc(C#N)cc32)c(C(F)(F)F)n1` [Example 134, (S)-6-(4-Amino-4-methylpent-2-ynoyl)-4-(2-(1-ethyl-3-(trifluoromethyl)-1H-pyrazol-4-yl)phenyl)-4,5,6,7-tetrahydrothieno[2,3-c]pyridine-2-carbonitrile], the 50% inhibitory concentration (IC50) in data set [3] was 3.12 µM; at SAE1 [4] it was 320 nM.

Consider `C=CC(=O)N1Cc2sc(C#N)cc2[C@H](c2cccc(F)c2-c2cn(CC)nc2C(F)(F)F)C1` [Compound 227], for which the IC50 worked out at 0.057 µM in data set [3] and 0.12 µM on SAE1 [5]. Moreover, the fraction unbound at 5 h, 1 μM in data set [2] was 0.021.

For the compound `CCn1cc(-c2ccccc2[C@@H]2CN(C(=O)/C=C/[C@@H](C)N)Cc3sc(C#N)cc32)c(C(F)(F)F)n1` [Example 47, (S)-6-((R, E)-4-aminopent-2-enoyl)-4-(2-(1-ethyl-3-(trifluoromethyl)-1 H-pyrazol-4-yl)phenyl)-4,5,6,7-tetrahydrothieno[2,3-c]pyridine-2-carbonitrile], the IC50 turned out to be 2.72 µM in data set [3] and 3370 nM on SAE1 [4].

Consider `[2H]C([2H])([2H])N(C/C=C/C(=O)N1Cc2sc(C#N)cc2[C@H](c2cccc(F)c2-c2cn(CC)nc2C(F)(F)F)C1)C([2H])([2H])[2H]` [Example 48, (S,E)-6-(4-(bis(methyl-d3)amino)but-2-enoyl)-4-(2-(1-ethyl-3-(trifluoromethyl)-1 H-pyrazol-4-yl)-3-fluorophenyl)-4,5,6,7-tetrahydrothieno[2,3-c]pyridine-2-carbonitrile], for which the IC50 in data set [3] came to 0.197 µM; on SAE1 [4] it was 1120 nM.

Consider `CCn1cc(-c2ccccc2[C@@H]2CN(C(=O)/C=C/C(F)(F)F)Cc3sc(C#N)cc32)c(C(F)(F)F)n1` [Example 22, (S, E)-4-(2-(1-ethyl-3-(trifluoromethyl)-1 H-pyrazol-4-yl)phenyl)-6-(4,4,4-trifluorobut-2-enoyl)-4,5,6,7-tetrahydrothieno[2,3-c]pyridine-2-carbonitrile], for which the concentration for half-maximal inhibition (IC50) came to 0.214 µM in data set [3] and 390 nM on SAE1 [4].

For the compound `CCn1cc(-c2ccccc2C2CN(C(=O)/C=C/CN(C)C)Cc3sc(C#N)c(Cl)c32)c(C(F)(F)F)n1` (centres unmarked) [Example 214, (E)-3-chloro-6-(4-(dimethylamino)but-2-enoyl)-4-(2-(1-ethyl-3-(trifluoromethyl)-1 H-pyrazol-4-yl)phenyl)-4,5,6,7-tetrahydrothieno[2,3-c]pyridine-2-carbonitrile], the half-maximal inhibitory concentration (IC50) worked out at 0.356 µM in data set [3] and 3970 nM at SAE1 [4].

In the case of `CCn1cc(-c2c(F)cccc2[C@@H]2CN(C(=O)/C=C/[C@@H]3CCCN3)Cc3sc(C#N)c(C)c32)c(C(F)(F)F)n1` [Example 249, (S)-4-(2-(1-ethyl-3-(trifluoromethyl)-1 H-pyrazol-4-yl)-3-fluorophenyl)-3-methyl-6-((E)-3-((S)-pyrrolidin-2-yl)acryloyl)-4,5,6,7-tetrahydrothieno[2,3-c]pyridine-2-carbonitrile], the IC50 in data set [3] was found to be 0.169 µM; against SAE1 [4] it was 140 nM.
